From patent US9446029B2, “Use of NK-1 receptor antagonists in management of visceral pain” (priority 2010, dated 2016)
Like-named read-outs stand apart in the source and are kept apart here.

Assays:
dogs [1] = test: Sevoflurane MAC reduction by I.V. maropitant during ovarian ligament stimulation in dogs (Example 1); type: in vivo, dog; conditions: for MAC Reduction (%, mean ± SD): sevoflurane, ovarian ligament stimulation
Description: The NK1 receptor antagonist maropitant, available as […]® from Pfizer, is an antiemetic approved for use in dogs. The ability of maropitant to impact the sevoflurane minimum alveolar concentration (MAC) level needed for surgery was tested in canine subjects. The eight animals were 1 year old, intact female, Walker hound mix. A first group was administered 1 mg/kg maropitant, I.V. over 5 minutes then 30 μg/kg/h. A second group was administered 5 mg/kg maropitant, I.V. over 5 minutes then 150 μg/kg/h. General anesthesia was induced using sevoflurane as described below and otherwise according to standard veterinary procedure. Animals were maintained in dorsal recumbency. MAC reduction effect was tested by stimulation of the ovarian ligament. Ovariectomy was performed on each animal at the end of the study. In each animal, sterile laparoscopy was performed to access the right ovary. Following thirty minutes of sevoflurane at steady state, end-tidal sevoflurane concentration was measured with a calibrated agent analyzer (Biochem). […] Esophageal temperature was 37.5-39° C. Ovarian ligament stimulation was performed using 6.61 Newton's of force with a calibrated grass force displacement transducer. FIG. 1 is a bar graph comparing the MAC reduction using I.V. maropitant during […] anesthesia. The observed MAC reduction is reported at sea level (mean±SD), and compared to published results for other MAC reduction agents in Table 1.

cats = test: Sevoflurane MAC during ovarian ligament stimulation in cats (Example 3); type: in vivo, cat; conditions: for sevoflurane anesthetic requirement MAC (mean±SD): ovarian ligament stimulation, control MAC 2.96±0.32%
Description: Ten (10) female cats were anesthetized with sevoflurane. Following stabilization, the right ovarian ligament was accessed using a laparoscopic approach to determine the anesthetic minimum alveolar concentration (MAC). The ovarian ligament was stimulated using 500 grams of traction force. The MAC is reported as mean±SD, adjusted for calibration values and to sea-level. The anesthetic requirement MAC during stimulation of the ovary was 2.96±0.32%.

dogs [2] = test: Clinical trial of analgesia and comfort in dogs during and after spay surgery (laparotomy ovariohysterectomy), isoflurane anesthesia (Example 2); set-up: dogs showing overt signs of nausea after surgery: dose or concentration left out as unconfirmed; conditions: for Post-Operative Carprofen Rescue Analgesia (4 mg/kg, IV): dogs requiring a rescue dose: recovery period; for pain assessment, Visual Analogue Pain Scale (0-10), compared to control group: three hours following recovery from anesthesia, FIG. 6
dogs [3] = conditions: cited from earlier work
[4] = maropitant 1 mg/kg SQ or morphine 0.5 mg/kg SQ before anesthesia

Q: With COc1ccc(C(C)(C)C)cc1CN[C@H]1C2CCN(CC2)[C@@H]1C(c1ccccc1)c1ccccc1 [Maropitant, (7R,8S)—N-[(5-tert-Butyl-2-methoxyphenyl)methyl]-7-[di(phenyl)methyl]-1-azabicyclo[2.2.2]octan-8-amine] as the compound, how does the “MAC Reduction (%, mean ± SD)” value (dogs [1]; maropitant 1 mg/kg I.V. over 5 minutes then 30 μg/kg/h) read?
A: 24%

Q: What about the “MAC Reduction (%, mean ± SD)” value (dogs [1]; maropitant 5 mg/kg I.V. over 5 minutes then 150 μg/kg/h) of the same compound?
A: 30%

Q: And the “increase of the pain threshold during anesthesia” value (dogs [1]; summary of Example 1 (1 and 5 mg/kg))?
A: 24-30%

Q: What about the “decrease of anesthetic requirement MAC” value (cats; higher maropitant dose IV) of the same compound?
A: 17%

Q: What about the “sevoflurane anesthetic requirement MAC (mean±SD)” value (cats; higher maropitant dose IV) of the same compound?
A: 2.45±0.43%

Q: What about the “sevoflurane anesthetic requirement MAC (mean±SD)” value (cats; maropitant 1 mg/kg IV, 500 grams traction) of the same compound?
A: 2.50±0.33%

Q: What about the “decrease of anesthetic requirement MAC” value (cats; maropitant 1 mg/kg IV, p<0.01) of the same compound?
A: 15%

Q: What about the “average heart rate throughout surgery” value (dogs [2]; [4]) of the same compound?
A: 103±20 beats per minute

Q: And the “average respiratory rate throughout surgery” value (dogs [2]; [4])?
A: 21±12 breaths per minute

Q: What about the “dogs that started eating within 3 hours following surgery” value (dogs [2]; [4]) of the same compound?
A: 65%

Q: What about the “subjects responding with panting during surgical painful stimulation” value (dogs [2]; [4]) of the same compound?
A: 35%

Q: And the “isoflurane anesthesia required during ovary ligation and resection (vaporizer setting)” value (dogs [2]; maropitant 1 mg/kg SQ or morphine 0.5 mg/kg SQ before anesthesia, FIG. 2)?
A: 1.41±0.25%

Q: What about the “isoflurane anesthesia required during skin closure” value (dogs [2]; maropitant 1 mg/kg SQ or morphine 0.5 mg/kg SQ before anesthesia, end of surgery, FIG. 4) of the same compound?
A: 1.26±0.19%

Q: And the “Post-Operative Carprofen Rescue Analgesia (4 mg/kg, IV): dogs requiring a rescue dose” value (dogs [2]; [4])?
A: 18%

Q: What about the “Post-Operative Carprofen Rescue Analgesia (4 mg/kg, IV): dogs requiring a rescue dose” value (dogs [2]; maropitant 1 mg/kg SQ or morphine 0.5 mg/kg SQ before anesthesia, listed as maropitant) of the same compound?
A: 18%

Q: And the “pain assessment, Visual Analogue Pain Scale (0-10), compared to control group” value (dogs [2])?
A: showed fewer overt signs of pain and discomfort

Q: With CN1CC[C@]23c4c5ccc(O)c4O[C@H]2[C@@H](O)C=C[C@H]3[C@H]1C5 [Morphine, morphine] as the compound, how does the “MAC Reduction (%, mean ± SD)” value (dogs [3]; dog, in vivo) read?
A: 35, 39%

Q: And the “dogs showing overt signs of nausea after surgery” value (dogs [2]; before anesthesia)?
A: 31%

Q: What about the “average heart rate throughout surgery” value (dogs [2]; [4]) of the same compound?
A: 115±23 beats per minute

Q: What about the “average respiratory rate throughout surgery” value (dogs [2]; [4]) of the same compound?
A: 27±20 breaths per minute

Q: What about the “dogs that started eating within 3 hours following surgery” value (dogs [2]; [4]) of the same compound?
A: 26%

Q: What about the “dogs whose esophageal pH decreased below 5 during surgery (gastric regurgitation)” value (dogs [2]; [4]) of the same compound?
A: 29%

Q: And the “subjects responding with panting during surgical painful stimulation” value (dogs [2]; [4])?
A: 38%

Q: And the “Post-Operative Carprofen Rescue Analgesia (4 mg/kg, IV): dogs requiring a rescue dose” value (dogs [2]; [4])?
A: 30%

Q: And the “Post-Operative Carprofen Rescue Analgesia (4 mg/kg, IV): dogs requiring a rescue dose” value (dogs [2]; maropitant 1 mg/kg SQ or morphine 0.5 mg/kg SQ before anesthesia, listed as morphine)?
A: 30%

Q: And the “pain assessment, Visual Analogue Pain Scale (0-10), compared to control group” value (dogs [2])?
A: only through the initial two hours of assessment

Q: For CNC1(c2ccccc2Cl)CCCCC1=O (centres unmarked) [Ketamine], which “MAC Reduction (%, mean ± SD)” value (dogs [3]; dog, in vivo) is on record?
A: 47%

Q: With Cc1cnc(NC(=O)C2=C(O)c3ccccc3S(=O)(=O)N2C)s1 [Meloxciam] as the compound, how does the “MAC Reduction (%, mean ± SD)” value (dogs [3]; meloxicam 0.2 mg/kg, sevoflurane, Yamashita et al., 2008) read?
A: 23%

Q: With CC(C(=O)O)c1ccc2c(c1)[nH]c1ccc(Cl)cc12 (centres unmarked) [Carprofen] as the compound, how does the “MAC Reduction (%, mean ± SD)” value (dogs [3]; carprofen 4 mg/kg, sevoflurane, Yamashita et al., 2008) read?
A: 12%

Q: Which “MAC Reduction (%, mean ± SD)” value (dogs [3]; dog, in vivo) does the source give for Oc1ccc2c(c1)[C@@]13CCCC[C@@]1(O)[C@@H](C2)N(CC1CCC1)CC3 [Butorphanol] here?
A: 8%

Q: For CC(=O)c1ccc2c(c1)N(CCCN(C)C)c1ccccc1S2 [Acepromazine], which “MAC Reduction (%, mean ± SD)” value (dogs [3]; acepromazine 0.04 mg/kg, halothane, Heard et al., 1986) is on record?
A: 40%

Q: For CCN(CC)CC(=O)Nc1c(C)cccc1C [Lidocaine], which “MAC Reduction (%, mean ± SD)” value (dogs [3]; lidocaine 2 mg/kg, 50 μg/kg/min, isoflurane, Valverde et al., 2004) is on record?
A: 19%

Q: What about the “MAC Reduction (%, mean ± SD)” value (dogs [3]; lidocaine 2 mg/kg, 200 μg/kg/min, isoflurane, Valverde et al., 2004) of the same compound?
A: 43%

Q: Which results are given for Cc1cccc([C@H](C)c2cnc[nH]2)c1C [Dexmedetomidine]?
A: MAC Reduction (%, mean ± SD) (dogs [3]; dexmedetomidine 0.5 μg/kg, 0.5 μg/kg/h, isoflurane, Pascoe et al., 2006): 18%; MAC Reduction (%, mean ± SD) (dogs [3]; dexmedetomidine 3 μg/kg, 3 μg/kg/h, isoflurane, Pascoe et al., 2006): 59%
